PMC4490784, “Compensatory induction of MYC expression by sustained CDK9 inhibition via a BRD4-dependent mechanism” (eLife, 2015)

Legend:
Experiment in all cases: KINOMEscan binding assay
EPHB1 = target: T1, EPHB1 (Homo sapiens, UniProt P54762); conditions: read-out: % Retention on Solid Support
T1 construct: purchased DiscoveRx KINOMEscan
Method in brief: (§1)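 Each kinase in a >400-member collection was probed for i-CDK9 binding via an active site-directed competition platform; test levels 1 and 10 µM.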

FLT3(R834Q) = target: T2, FLT3(R834Q) (Homo sapiens, UniProt P36888, R834Q); conditions: 1 µM i-CDK9; read-out: % Retention on Solid Support
T2 construct: purchased DiscoveRx KINOMEscan
Method in brief: as §1

IRAK1 = target: T3, IRAK1 (Homo sapiens, UniProt P51617); conditions: read-out: % Retention on Solid Support
T3 construct: purchased DiscoveRx KINOMEscan
Method in brief: as §1

EGFR(T790M) = target: T4, EGFR(T790M) (Homo sapiens, UniProt P00533, T790M); conditions: 1 µM i-CDK9
T4 construct: purchased DiscoveRx KINOMEscan
Method in brief: as §1

LRRK2 = target: T5, LRRK2 (Homo sapiens, UniProt Q5S007); conditions: 1 µM i-CDK9; read-out: % Retention on Solid Support
T5 construct: purchased DiscoveRx KINOMEscan
Method in brief: as §1

FGFR2 = target: T6, FGFR2 (Homo sapiens, UniProt P21802); conditions: read-out: % Retention on Solid Support
T6 construct: purchased DiscoveRx KINOMEscan
Method in brief: as §1

TRKB = target: T7, TRKB (Homo sapiens, UniProt Q16620); conditions: read-out: % Retention on Solid Support
T7 construct: purchased DiscoveRx KINOMEscan
Method in brief: as §1

MEK3 = target: T8, MEK3 (Homo sapiens, UniProt P46734); conditions: read-out: % Retention on Solid Support
T8 construct: purchased DiscoveRx KINOMEscan
Method in brief: as §1

LZK = target: T9, LZK (Homo sapiens, UniProt O43283)
T9 construct: purchased DiscoveRx KINOMEscan
T9 sequence (O43283 whole entry): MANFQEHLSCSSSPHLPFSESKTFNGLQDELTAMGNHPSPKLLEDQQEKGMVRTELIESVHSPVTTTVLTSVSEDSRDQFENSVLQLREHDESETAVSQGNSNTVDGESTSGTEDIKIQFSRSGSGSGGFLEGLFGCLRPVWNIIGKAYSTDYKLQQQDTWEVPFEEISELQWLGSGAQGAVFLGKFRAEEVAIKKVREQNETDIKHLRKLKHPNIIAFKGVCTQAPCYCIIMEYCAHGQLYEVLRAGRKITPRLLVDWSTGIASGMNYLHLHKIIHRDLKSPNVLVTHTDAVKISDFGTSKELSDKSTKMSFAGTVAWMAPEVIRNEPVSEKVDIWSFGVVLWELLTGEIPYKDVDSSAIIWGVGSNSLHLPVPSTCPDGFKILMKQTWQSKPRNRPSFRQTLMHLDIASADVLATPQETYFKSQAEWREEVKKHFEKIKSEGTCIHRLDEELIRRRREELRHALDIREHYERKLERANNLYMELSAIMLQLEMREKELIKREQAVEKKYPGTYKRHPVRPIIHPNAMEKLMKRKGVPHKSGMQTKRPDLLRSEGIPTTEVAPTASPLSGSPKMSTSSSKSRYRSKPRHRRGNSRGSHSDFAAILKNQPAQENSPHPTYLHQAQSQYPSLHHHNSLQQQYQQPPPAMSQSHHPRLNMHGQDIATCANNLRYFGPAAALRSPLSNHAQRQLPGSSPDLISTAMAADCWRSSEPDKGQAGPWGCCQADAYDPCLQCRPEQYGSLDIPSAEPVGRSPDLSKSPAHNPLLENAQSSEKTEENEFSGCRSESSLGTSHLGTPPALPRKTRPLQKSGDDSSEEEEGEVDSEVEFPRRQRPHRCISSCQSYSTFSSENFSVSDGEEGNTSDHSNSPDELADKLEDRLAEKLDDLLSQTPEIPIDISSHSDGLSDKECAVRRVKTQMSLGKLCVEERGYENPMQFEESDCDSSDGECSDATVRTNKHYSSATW
Method in brief: as §1

TNNI3K = target: T10, TNNI3K (Homo sapiens, UniProt Q59H18); conditions: read-out: % Retention on Solid Support
T10 construct: purchased DiscoveRx KINOMEscan
Method in brief: as §1

EGFR(L858R,T790M) = target: T11, EGFR(L858R,T790M) (Homo sapiens, UniProt P00533, L858R/T790M)
T11 construct: purchased DiscoveRx KINOMEscan
Method in brief: as §1

STK35 = target: T12, STK35 (Homo sapiens, UniProt Q8TDR2); conditions: read-out: % Retention on Solid Support
T12 construct: purchased DiscoveRx KINOMEscan
Method in brief: as §1

HIPK3 = target: T13, HIPK3 (Homo sapiens, UniProt Q9H422); conditions: read-out: % Retention on Solid Support
T13 construct: purchased DiscoveRx KINOMEscan
T13 sequence (Q9H422 whole entry): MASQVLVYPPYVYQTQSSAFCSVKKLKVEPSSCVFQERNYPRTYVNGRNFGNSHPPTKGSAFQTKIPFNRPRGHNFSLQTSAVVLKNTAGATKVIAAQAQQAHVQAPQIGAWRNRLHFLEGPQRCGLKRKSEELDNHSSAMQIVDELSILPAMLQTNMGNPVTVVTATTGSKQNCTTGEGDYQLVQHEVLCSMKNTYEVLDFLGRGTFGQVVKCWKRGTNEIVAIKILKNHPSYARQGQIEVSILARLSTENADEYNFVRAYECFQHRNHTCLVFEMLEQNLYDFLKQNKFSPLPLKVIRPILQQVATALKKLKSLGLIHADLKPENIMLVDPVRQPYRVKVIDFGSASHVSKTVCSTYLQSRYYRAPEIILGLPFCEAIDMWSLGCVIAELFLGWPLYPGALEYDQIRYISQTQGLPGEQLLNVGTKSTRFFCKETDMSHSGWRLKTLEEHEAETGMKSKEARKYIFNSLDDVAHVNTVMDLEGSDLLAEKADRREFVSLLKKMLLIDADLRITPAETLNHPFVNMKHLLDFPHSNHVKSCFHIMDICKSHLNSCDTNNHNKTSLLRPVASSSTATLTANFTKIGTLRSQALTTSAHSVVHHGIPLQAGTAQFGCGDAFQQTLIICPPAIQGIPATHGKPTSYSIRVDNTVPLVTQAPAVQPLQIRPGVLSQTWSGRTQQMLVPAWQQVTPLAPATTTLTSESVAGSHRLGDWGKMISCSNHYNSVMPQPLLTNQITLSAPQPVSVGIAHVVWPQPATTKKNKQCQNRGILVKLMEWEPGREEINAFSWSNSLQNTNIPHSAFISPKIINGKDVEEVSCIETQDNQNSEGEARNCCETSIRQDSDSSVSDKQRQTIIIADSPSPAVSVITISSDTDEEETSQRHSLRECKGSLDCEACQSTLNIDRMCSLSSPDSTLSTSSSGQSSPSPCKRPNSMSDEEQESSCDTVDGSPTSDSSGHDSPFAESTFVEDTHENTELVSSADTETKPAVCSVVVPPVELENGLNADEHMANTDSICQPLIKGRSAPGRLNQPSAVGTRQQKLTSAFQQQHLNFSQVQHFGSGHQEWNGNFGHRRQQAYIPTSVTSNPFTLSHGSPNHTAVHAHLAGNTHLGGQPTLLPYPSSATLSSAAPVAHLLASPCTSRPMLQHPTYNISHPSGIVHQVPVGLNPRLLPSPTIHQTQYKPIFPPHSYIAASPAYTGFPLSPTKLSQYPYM
Method in brief: as §1

MERTK = target: T14, MERTK (Homo sapiens, UniProt Q12866); conditions: read-out: % Retention on Solid Support
T14 construct: purchased DiscoveRx KINOMEscan
T14 sequence (Q12866 21-999): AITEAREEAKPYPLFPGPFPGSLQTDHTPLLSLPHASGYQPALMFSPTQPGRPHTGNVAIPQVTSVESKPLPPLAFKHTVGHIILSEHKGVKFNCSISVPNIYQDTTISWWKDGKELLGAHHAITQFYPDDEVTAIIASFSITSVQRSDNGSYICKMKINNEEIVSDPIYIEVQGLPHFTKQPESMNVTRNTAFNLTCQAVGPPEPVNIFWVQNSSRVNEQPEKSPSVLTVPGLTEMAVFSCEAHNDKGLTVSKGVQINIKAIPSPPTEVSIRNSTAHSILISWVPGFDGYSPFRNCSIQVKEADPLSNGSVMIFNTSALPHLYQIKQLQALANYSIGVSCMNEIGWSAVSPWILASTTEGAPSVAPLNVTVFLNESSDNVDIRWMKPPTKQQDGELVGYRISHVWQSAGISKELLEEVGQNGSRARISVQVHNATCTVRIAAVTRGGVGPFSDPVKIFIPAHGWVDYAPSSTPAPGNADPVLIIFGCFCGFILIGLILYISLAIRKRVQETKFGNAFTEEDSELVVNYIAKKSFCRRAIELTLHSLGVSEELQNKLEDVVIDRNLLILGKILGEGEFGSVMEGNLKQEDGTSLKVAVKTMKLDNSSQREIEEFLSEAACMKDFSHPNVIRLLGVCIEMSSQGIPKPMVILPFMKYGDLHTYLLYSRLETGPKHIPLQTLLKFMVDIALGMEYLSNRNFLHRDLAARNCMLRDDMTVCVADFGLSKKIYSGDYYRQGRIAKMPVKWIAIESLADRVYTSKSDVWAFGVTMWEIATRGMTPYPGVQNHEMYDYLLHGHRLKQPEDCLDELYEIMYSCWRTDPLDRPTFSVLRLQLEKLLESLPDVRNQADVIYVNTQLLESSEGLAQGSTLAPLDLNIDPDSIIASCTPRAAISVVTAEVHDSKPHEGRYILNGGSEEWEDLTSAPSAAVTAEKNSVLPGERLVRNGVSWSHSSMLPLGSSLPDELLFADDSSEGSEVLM
Method in brief: as §1

TAK1 = target: T15, TAK1 (Homo sapiens, UniProt O43318); conditions: read-out: % Retention on Solid Support
T15 construct: purchased DiscoveRx KINOMEscan
Method in brief: as §1

MLK2 = target: T16, MLK2 (Homo sapiens, UniProt Q02779); conditions: read-out: % Retention on Solid Support
T16 construct: purchased DiscoveRx KINOMEscan
Method in brief: as §1

MST2 = target: T17, MST2 (Homo sapiens, UniProt Q13188); conditions: read-out: % Retention on Solid Support
T17 construct: purchased DiscoveRx KINOMEscan
T17 sequence (Q13188 whole entry): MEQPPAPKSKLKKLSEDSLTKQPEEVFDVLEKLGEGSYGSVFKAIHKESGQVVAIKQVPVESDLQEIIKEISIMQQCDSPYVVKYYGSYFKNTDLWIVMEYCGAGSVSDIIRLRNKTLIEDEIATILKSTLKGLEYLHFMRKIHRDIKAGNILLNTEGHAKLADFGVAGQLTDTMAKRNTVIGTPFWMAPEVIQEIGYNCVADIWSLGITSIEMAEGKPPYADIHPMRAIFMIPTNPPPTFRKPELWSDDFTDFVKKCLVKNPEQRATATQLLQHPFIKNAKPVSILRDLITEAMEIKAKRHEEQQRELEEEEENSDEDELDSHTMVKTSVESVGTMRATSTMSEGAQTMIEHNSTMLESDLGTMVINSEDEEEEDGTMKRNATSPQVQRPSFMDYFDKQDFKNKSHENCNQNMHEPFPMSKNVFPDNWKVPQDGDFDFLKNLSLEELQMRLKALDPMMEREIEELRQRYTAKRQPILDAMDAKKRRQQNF
Method in brief: as §1

DAPK2 = target: T18, DAPK2 (Homo sapiens, UniProt Q9UIK4); conditions: read-out: % Retention on Solid Support
T18 construct: purchased DiscoveRx KINOMEscan
T18 sequence (Q9UIK4 whole entry): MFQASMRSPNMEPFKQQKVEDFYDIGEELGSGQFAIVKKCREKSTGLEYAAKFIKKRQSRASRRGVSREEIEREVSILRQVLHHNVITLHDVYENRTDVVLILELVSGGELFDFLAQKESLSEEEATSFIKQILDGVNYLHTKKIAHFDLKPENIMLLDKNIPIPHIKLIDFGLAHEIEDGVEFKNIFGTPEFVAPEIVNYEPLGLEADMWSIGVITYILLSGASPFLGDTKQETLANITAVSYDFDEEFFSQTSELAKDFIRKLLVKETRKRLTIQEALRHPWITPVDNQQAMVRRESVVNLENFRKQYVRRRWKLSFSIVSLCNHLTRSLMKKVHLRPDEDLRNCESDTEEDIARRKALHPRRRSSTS
Method in brief: as §1

IKK-epsilon = target: T19, IKK-epsilon (Homo sapiens, UniProt Q14164); conditions: read-out: % Retention on Solid Support
T19 construct: purchased DiscoveRx KINOMEscan
Method in brief: as §1

[1] = target: T20, TYK2(JH2domain-pseudokinase) (Homo sapiens, UniProt P29597)
T20 construct: TYK2(JH2domain-pseudokinase); purchased DiscoveRx KINOMEscan
Method in brief: as §1

ALK = target: T21, ALK (Homo sapiens, UniProt Q9UM73); conditions: read-out: % Retention on Solid Support
T21 construct: purchased DiscoveRx KINOMEscan
Method in brief: as §1

CDK5 = target: T22, CDK5 (Homo sapiens, UniProt Q00535); conditions: read-out: % Retention on Solid Support
T22 construct: purchased DiscoveRx KINOMEscan
Method in brief: as §1

LYN = target: T23, LYN (Homo sapiens, UniProt P07948); conditions: read-out: % Retention on Solid Support
T23 construct: purchased DiscoveRx KINOMEscan
Method in brief: as §1

RIOK2 = target: T24, RIOK2 (Homo sapiens, UniProt Q9BVS4); conditions: read-out: % Retention on Solid Support
T24 construct: purchased DiscoveRx KINOMEscan
Method in brief: as §1

EPHA5 = target: T25, EPHA5 (Homo sapiens, UniProt P54756)
T25 construct: purchased DiscoveRx KINOMEscan
T25 sequence (P54756 25-1037): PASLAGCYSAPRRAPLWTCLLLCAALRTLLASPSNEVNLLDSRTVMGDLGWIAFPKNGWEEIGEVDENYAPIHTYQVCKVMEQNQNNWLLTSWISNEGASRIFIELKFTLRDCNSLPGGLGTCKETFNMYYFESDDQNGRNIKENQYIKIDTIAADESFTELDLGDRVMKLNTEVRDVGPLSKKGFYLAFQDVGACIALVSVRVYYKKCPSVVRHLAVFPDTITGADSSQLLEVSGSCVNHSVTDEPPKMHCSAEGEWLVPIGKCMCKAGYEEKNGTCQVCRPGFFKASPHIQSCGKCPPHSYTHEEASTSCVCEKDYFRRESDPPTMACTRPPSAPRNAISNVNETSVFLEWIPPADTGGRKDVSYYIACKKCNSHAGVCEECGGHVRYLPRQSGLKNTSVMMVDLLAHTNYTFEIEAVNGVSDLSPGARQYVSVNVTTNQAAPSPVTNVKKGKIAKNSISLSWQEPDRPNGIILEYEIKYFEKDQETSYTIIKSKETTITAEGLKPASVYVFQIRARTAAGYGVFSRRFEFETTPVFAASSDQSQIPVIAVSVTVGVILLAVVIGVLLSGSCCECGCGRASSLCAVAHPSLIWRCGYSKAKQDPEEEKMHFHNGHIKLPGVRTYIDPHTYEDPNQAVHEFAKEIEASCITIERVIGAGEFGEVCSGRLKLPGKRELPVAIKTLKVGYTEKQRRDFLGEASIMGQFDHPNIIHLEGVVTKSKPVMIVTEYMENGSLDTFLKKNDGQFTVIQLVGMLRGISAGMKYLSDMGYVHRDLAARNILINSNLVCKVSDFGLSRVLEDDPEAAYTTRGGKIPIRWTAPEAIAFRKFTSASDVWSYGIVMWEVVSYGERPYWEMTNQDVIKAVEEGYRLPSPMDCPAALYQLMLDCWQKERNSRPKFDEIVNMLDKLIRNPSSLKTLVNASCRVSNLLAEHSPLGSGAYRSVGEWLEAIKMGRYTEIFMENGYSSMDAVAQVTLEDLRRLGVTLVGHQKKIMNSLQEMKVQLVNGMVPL
Method in brief: as §1

## N[C@H]1CC[C@H](Nc2cc(-c3cccc(NCc4cccc(F)c4)n3)c(Cl)cn2)CC1 [i-CDK9, N2′-(trans-4-aminocyclohexyl)-5′-chloro-N6-(3-fluorobenzyl)-2,4′-bipyridine-2′,6-diamine]
EPHB1; 1 µM i-CDK9
  remaining binding at 1 µM: 100%
EPHB1; 10 µM i-CDK9
  remaining binding at 10 µM: 100%
FLT3(R834Q)
  remaining binding at 1 µM: 36%
IRAK1; 1 µM i-CDK9
  remaining binding at 1 µM: 100%
IRAK1; 10 µM i-CDK9
  remaining binding at 10 µM: 73%
EGFR(T790M)
  % Retention on Solid Support: 100%
LRRK2
  remaining binding at 1 µM: 100%
FGFR2; 1 µM i-CDK9
  remaining binding at 1 µM: 97%
FGFR2; 10 µM i-CDK9
  remaining binding at 10 µM: 100%
TRKB; 1 µM i-CDK9
  remaining binding at 1 µM: 100%
TRKB; 10 µM i-CDK9
  remaining binding at 10 µM: 100%
MEK3; 1 µM i-CDK9
  remaining binding at 1 µM: 99%
MEK3; 10 µM i-CDK9
  remaining binding at 10 µM: 85%
LZK; 1 µM i-CDK9
  % Retention on Solid Support: 100%
LZK; 10 µM i-CDK9
  % Retention on Solid Support: 100%
TNNI3K; 1 µM i-CDK9
  remaining binding at 1 µM: 81%
TNNI3K; 10 µM i-CDK9
  remaining binding at 10 µM: 100%
EGFR(L858R,T790M); 1 µM i-CDK9
  % Retention on Solid Support: 100%
EGFR(L858R,T790M); 10 µM i-CDK9
  % Retention on Solid Support: 89%
STK35; 1 µM i-CDK9
  remaining binding at 1 µM: 100%
STK35; 10 µM i-CDK9
  remaining binding at 10 µM: 91%
HIPK3; 1 µM i-CDK9
  remaining binding at 1 µM: 100%
HIPK3; 10 µM i-CDK9
  remaining binding at 10 µM: 89%
MERTK; 1 µM i-CDK9
  remaining binding at 1 µM: 100%
MERTK; 10 µM i-CDK9
  remaining binding at 10 µM: 60%
TAK1; 1 µM i-CDK9
  remaining binding at 1 µM: 100%
TAK1; 10 µM i-CDK9
  remaining binding at 10 µM: 82%
MLK2; 1 µM i-CDK9
  remaining binding at 1 µM: 100%
MLK2; 10 µM i-CDK9
  remaining binding at 10 µM: 100%
MST2; 1 µM i-CDK9
  remaining binding at 1 µM: 72%
MST2; 10 µM i-CDK9
  remaining binding at 10 µM: 100%
DAPK2; 1 µM i-CDK9
  remaining binding at 1 µM: 90%
DAPK2; 10 µM i-CDK9
  remaining binding at 10 µM: 80%
IKK-epsilon; 1 µM i-CDK9
  remaining binding at 1 µM: 95%
IKK-epsilon; 10 µM i-CDK9
  remaining binding at 10 µM: 100%
[1]; 1 µM i-CDK9
  % Retention on Solid Support: 100%
[1]; 10 µM i-CDK9
  % Retention on Solid Support: 86%
ALK; 1 µM i-CDK9
  remaining binding at 1 µM: 86%
ALK; 10 µM i-CDK9
  remaining binding at 10 µM: 70%
CDK5; 1 µM i-CDK9
  remaining binding at 1 µM: 100%
CDK5; 10 µM i-CDK9
  remaining binding at 10 µM: 81%
LYN; 1 µM i-CDK9
  remaining binding at 1 µM: 100%
LYN; 10 µM i-CDK9
  remaining binding at 10 µM: 81%
RIOK2; 1 µM i-CDK9
  remaining binding at 1 µM: 100%
RIOK2; 10 µM i-CDK9
  remaining binding at 10 µM: 32%
EPHA5; 1 µM i-CDK9
  % Retention on Solid Support: 96%
EPHA5; 10 µM i-CDK9
  % Retention on Solid Support: 100%
